IC50 data for 16 molecules are collected here from US9227971B2, “Pyrazolo[1,5-a]pyrimidine compounds as mTOR inhibitors” (Merck Sharp & Dohme Corp., priority 2010, dated 2016).

Read-outs that look alike come from different tables or passages of the source.

Assay [1] deals with phosphorylated 4E-BP1 Thr37/46 (p4E-BP1 Thr37/46), mTORC1 activity, PC3 cells. Description: mTOR target engagement assay, immunofluorescent cell-based, p4E-BP1 Thr37/46 readout (mTORC1 activity). The note with it: read-out: p4E-BP1 Thr37/46 IC50. Here is the method:
The target engagement of mTOR kinase inhibitors was evaluated using an immunofluorescent cell-based assay. In this assay, inhibition of mTORC1 activity was measured by the reduction in the level of phosphorylated 4E-BP1^[…] (p4E-BP1 Thr37/46), and inhibition of mTORC2 activity was measured by the reduction of phosphorylated AKT^Ser473 (pAKT S473).
PC3 cells (prostate tumor cell-line that contains a mutation in the tumor suppressor PTEN, that promotes the phosphorylation and activation of AKT and 4E-BP1) were used in the immunofluorescence assay. PC3 cells were seeded on 384 well plates (black clear bottom, Matrix #4332) overnight. PC3 cells were then treated with 40 μl of the serially diluted test compounds (in 5% fetal bovine serum, F12 medium containing 0.25% DMSO) for ninety minutes at 37° C. The test compound solution was removed, and the plates were washed gently two times with 25 μl phosphate buffered saline (PBS). The cells were fixed by adding 25 μl of Prefer reagent (from Anatech LTD, Cat#414, a glyoxal fixative for fixing proteins within a cell) for sixty minutes followed by three washes with PBS. 5% Goat serum in PBS/0.3% Triton was used to block non-specific binding (60 minutes).
The primary antibodies targeting pAKT S473 and p4E-BP1 Thr37/46 were diluted into PBS/0.3% Triton and incubated with the cells overnight at 4° C. The antibodies targeting pAKTS473 (Cat#4085, Cell signaling) and p4E-BP1 Thr37/46 (Cat#2855, Cell signaling) were used at a 1:100 dilution. Plates were washed three times with PBS/0.1% Tween 20 before adding the secondary antibody at a 1:200 dilution. (goat anti-rabbit containing a fluorescent label, Alexa Fluor 488, Cat#A11008, Invitrogen) in PBS/0.3% Triton for 60 minutes.
Finally, the plates were washed three times with PBS/0.1% Tween 20 and the fluorescent intensity was read using an Analyst HT from Molecular Devices. The fluorescent intensity values from the serially diluted compound treatment group were analyzed using the Xlfit 4 program ([…]) (Formula 205: Y=Bottom+(Top-Bottom)/(1+(IC50/X)^Hillslope) to generate the IC50 value. Where Top is the maximum signal without Compound (+DMSO only) and Bottom represents maximum inhibition. Y is the fluorescence at some compound concentration. The control used to determine the fluorescent intensities for 100% pAKT S473 or 100% phosphorylated p4E-BP1 Thr37/46 were measured from untreated wells that contained only DMSO, instead of test compound.

Assay [2] relates to phosphorylated AKT Ser473 (pAKT S473), mTORC2 activity, PC3 cells. Description: mTOR target engagement assay, immunofluorescent cell-based, pAKT S473 readout (mTORC2 activity). In a few lines: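 After blocking, cells were stained overnight at 4 °C with anti-pAKT S473 antibody, then a fluorescent secondary; inhibition was read as reduced fluorescence intensity.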
Setting [3] is: Homo sapiens, PC-3, Table 7-8, PC3 cells.
[4] abbreviates: Homo sapiens, PC-3, Table 6-1, PC3 cells.
Where [5] appears, read: Homo sapiens, PC-3, PC3 cells, compound treatment ninety minutes at 37° C.
The mark [6] stands for this setting: Homo sapiens, PC-3, Table 3-1, PC3 cells.
[7] abbreviates: PC3 cells, compound treatment ninety minutes at 37° C.

Regarding `Nc1c(Br)c([C@@H]2C[C@H]3CC[C@@H](C2)N3C(=O)c2nnc[nH]2)nc2c(-c3ccc(C4(O)CCC4)nc3)cnn12` [Compound 7.42, ((1R,3s,5S)-3-(7-amino-6-bromo-3-(6-(1-hydroxycyclobutyl)pyridin-3-yl)pyrazolo[1,5-a]pyrimidin-5-yl)-8-azabicyclo[3.2.1]octan-8-yl)(4H-1,2,4-triazol-3-yl)methanone], the IC50 in assay [1] (setting [3]) lay in the range of 100 to 1000 nM; in assay [2] (setting [3]), 1000 to 10000 nM.
In the case of `CNC(=O)N1[C@@H]2CC[C@H]1C[C@H](c1nc3c(-c4ccc(-c5ncc[nH]5)nc4)cnn3c(N)c1C(C)=O)C2` [Compound 6.24, (1R,3s,5S)-3-(3-(6-(1H-imidazol-2-yl)pyridin-3-yl)-6-acetyl-7-aminopyrazolo[1,5-a]pyrimidin-5-yl)-N-methyl-8-azabicyclo[3.2.1]octane-8-carboxamide], the IC50 in assay [1] (setting [4]) and in assay [2] (setting [4]) was 1 to 100 nM each time.
Regarding `COCCNC(=O)N1[C@@H]2CC[C@H]1C[C@H](c1nc3c(-c4ccc(-c5ccccc5)nc4)cnn3c(N)c1C1CC1)C2` [Compound 4.7, (1R,3s,5S)-3-(7-amino-6-cyclopropyl-3-(6-phenylpyridin-3-yl)pyrazolo[1,5-a]pyrimidin-5-yl)-N-(2-methoxyethyl)-8-azabicyclo[3.2.1]octane-8-carboxamide], the IC50 in assay [1] (setting [5]) and in assay [2] (setting [5]) was 100 to 1000 nM each time.
Turning to `COc1cc(F)c(-c2ccc(-c3cnn4c(N)c(S(C)(=O)=O)c([C@@H]5C[C@H]6CC[C@@H](C5)N6C(=O)c5nnc[nH]5)nc34)cn2)cc1F` [Compound 3.59, ((1R,3s,5S)-3-(7-amino-3-(6-(2,5-difluoro-4-methoxyphenyl)pyridin-3-yl)-6-(methylsulfonyl)pyrazolo[1,5-a]pyrimidin-5-yl)-8-azabicyclo[3.2.1]octan-8-yl)(4H-1,2,4-triazol-3-yl)methanone], the IC50 in assay [1] (setting [6]) and in assay [2] (setting [6]) was 1 to 100 nM throughout.
With `CC(=O)c1c([C@@H]2C[C@H]3CC[C@@H](C2)N3C(=O)c2nnc[nH]2)nc2c(-c3ccc(C(N)(C(F)(F)F)C(F)(F)F)nc3)cnn2c1N` [Compound 7.80, 1-(5-((1R,3s,5S)-8-(4H-1,2,4-triazole-3-carbonyl)-8-azabicyclo[3.2.1]octan-3-yl)-7-amino-3-(6-(2-amino-1,1,1,3,3,3-hexafluoropropan-2-yl)pyridin-3-yl)pyrazolo[1,5-a]pyrimidin-6-yl)ethanone], the IC50 is 100 to 1000 nM in assay [1] (Homo sapiens, PC-3, PC3 cells) and 1000 to 10000 nM in assay [2] (Homo sapiens, PC-3, PC3 cells).
Take `CC(=O)c1c([C@@H]2C[C@H]3CC[C@@H](C2)N3C(=O)CO)nc2c(-c3ccc(-c4ncn(C)n4)nc3)cnn2c1N` [Compound 1.1.89, 1-((1R,3s,5S)-3-(6-acetyl-7-amino-3-(6-(1-methyl-1H-1,2,4-triazol-3-yl)pyridin-3-yl)pyrazolo[1,5-a]pyrimidin-5-yl)-8-azabicyclo[3.2.1]octan-8-yl)-2-hydroxyethanone]: the IC50 in assay [1] (setting [5]) and in assay [2] (setting [5]) was 100 to 1000 nM in each case.
Turning to `Cc1csc(-c2ccc(-c3cnn4c(N)c(S(C)(=O)=O)c([C@@H]5C[C@H]6CC[C@@H](C5)N6C(=O)c5cn[nH]n5)nc34)cn2)n1` [Compound 3.189, ((1R,3s,5S)-3-(7-amino-6-(methylsulfonyl)-3-(6-(4-methylthiazol-2-yl)pyridin-3-yl)pyrazolo[1,5-a]pyrimidin-5-yl)-8-azabicyclo[3.2.1]octan-8-yl)(2H-1,2,3-triazol-4-yl)methanone], the IC50 in assay [1] (setting [6]) and in assay [2] (setting [6]) was 1000 to 10000 nM throughout.
For `CC(=O)c1c([C@@H]2C[C@H]3CC[C@@H](C2)N3C(=O)CO)nc2c(-c3ccc(-c4ccc(F)cc4F)nc3)cnn2c1N` [Compound 1.1.164, 1-((1R,3s,5S)-3-(6-acetyl-7-amino-3-(6-(2,4-difluorophenyl)pyridin-3-yl)pyrazolo[1,5-a]pyrimidin-5-yl)-8-azabicyclo[3.2.1]octan-8-yl)-2-hydroxyethanone], the figures for the IC50 in assay [1] (setting [5]) and in assay [2] (setting [5]) were 100 to 1000 nM and 1 to 100 nM, respectively.
Take `CS(=O)(=O)c1c([C@@H]2C[C@H]3CC[C@@H](C2)N3C(=O)c2nnc[nH]2)nc2c(-c3ccc(-c4cn[nH]c4)nc3)cnn2c1N` [Compound 3.109, ((1R,3s,5S)-3-(3-(6-(1H-pyrazol-4-yl)pyridin-3-yl)-7-amino-6-(methylsulfonyl)pyrazolo[1,5-a]pyrimidin-5-yl)-8-azabicyclo[3.2.1]octan-8-yl)(4H-1,2,4-triazol-3-yl)methanone]: the IC50 in assay [1] (setting [6]) and in assay [2] (setting [6]) was 1000 to 10000 nM throughout.
In the case of `CC(=O)c1c([C@@H]2C[C@H]3CC[C@@H](C2)N3C(=O)c2nnc[nH]2)nc2c(-c3ccc(-n4ccc(C)n4)nc3)cnn2c1N` [Compound 1.1.136, 1-(5-((1R,3s,5S)-8-(4H-1,2,4-triazole-3-carbonyl)-8-azabicyclo[3.2.1]octan-3-yl)-7-amino-3-(6-(3-methyl-1H-pyrazol-1-yl)pyridin-3-yl)pyrazolo[1,5-a]pyrimidin-6-yl)ethanone], the figures for the IC50 in assay [1] (setting [5]) and in assay [2] (setting [5]) were 100 to 1000 nM and 1 to 100 nM, respectively.
The corresponding values for `CC(=O)c1c([C@@H]2C[C@H]3CC[C@@H](C2)N3C(=O)CO)nc2c(-c3ccc(-n4ccc(C)n4)nc3)cnn2c1N` [Compound 1.1.133, 1-((1R,3s,5S)-3-(6-acetyl-7-amino-3-(6-(3-methyl-1H-pyrazol-1-yl)pyridin-3-yl)pyrazolo[1,5-a]pyrimidin-5-yl)-8-azabicyclo[3.2.1]octan-8-yl)-2-hydroxyethanone] are 1000 to 10000 nM and 100 to 1000 nM.
For `CC(=O)C(=O)N1[C@@H]2CC[C@H]1C[C@H](c1nc3c(-c4ccc(-c5ccccc5)nc4)cnn3c(N)c1C(C)=O)C2` [Compound 1.1.117, 1-((1R,3s,5S)-3-(6-acetyl-7-amino-3-(6-phenylpyridin-3-yl)pyrazolo[1,5-a]pyrimidin-5-yl)-8-azabicyclo[3.2.1]octan-8-yl)propane-1,2-dione], the IC50 in assay [1] (setting [5]) and in assay [2] (setting [5]) was 100 to 1000 nM in each case.
Regarding “1-((1R,3s,5S)-3-(6-acetyl-7-amino-3-(6-(fluoromethyl)pyridin-3-yl)pyrazolo[1,5-a]pyrimidin-5-yl)-8-azabicyclo[3.2.1]octan-8-yl)-2-hydroxyethanone [Compound 1.1.92]”, the IC50 in assay [1] (setting [7]) and in assay [2] (setting [7]) was 1 to 100 nM in each case.
`CC(=O)c1c([C@@H]2C[C@H]3CC[C@@H](C2)N3C(=O)CO)nc2c(-c3cnn(-c4ccccn4)c3)cnn2c1N` [Compound 1.1.162, 1-((1R,3s,5S)-3-(6-acetyl-7-amino-3-(1-(pyridin-2-yl)-1H-pyrazol-4-yl)pyrazolo[1,5-a]pyrimidin-5-yl)-8-azabicyclo[3.2.1]octan-8-yl)-2-hydroxyethanone]: the IC50 in assay [1] (setting [5]) and in assay [2] (setting [5]) was 100 to 1000 nM in each case.
With `CC(=O)c1c([C@@H]2C[C@H]3CC[C@@H](C2)N3C(=O)c2cncc(O)c2)nc2c(-c3ccc(-c4ccccc4)nc3)cnn2c1N` [Compound 1.1.50, 1-(7-amino-5-((1R,3s,5S)-8-(5-hydroxynicotinoyl)-8-azabicyclo[3.2.1]octan-3-yl)-3-(6-phenylpyridin-3-yl)pyrazolo[1,5-a]pyrimidin-6-yl)ethanone], the IC50 in assay [1] (setting [5]) and in assay [2] (setting [5]) was 100 to 1000 nM in each case.
For the molecule `COC(=O)N1[C@@H]2CC[C@H]1C[C@H](c1nc3c(-c4ccc(-c5ncc[nH]5)nc4)cnn3c(N)c1C(C)=O)C2` [Compound 6.25, (1R,3s,5S)-methyl 3-(3-(6-(1H-imidazol-2-yl)pyridin-3-yl)-6-acetyl-7-aminopyrazolo[1,5-a]pyrimidin-5-yl)-8-azabicyclo[3.2.1]octane-8-carboxylate], the IC50 in assay [1] (setting [4]) and in assay [2] (setting [4]) was 1 to 100 nM each time.
